Results from patent US4430342A, “N-Acyl-3-[4-(benzoylalkyl)piperazin-1-yl]-sydnonimine compound, process for prodction thereof, and use thereof” (Hidaka; Hiroyoshi, priority 1981, dated 1984).
In brackets after ≈: the same amount, converted by molar mass. Structures can show the parent of a compound that is named as a salt. Where two headings read alike, the source gives them in different places.

How the values were obtained:
[1] = test system: human platelet aggregation; experiment: collagen-induced human platelet aggregation inhibiting activity, in vitro; type: cell-based; settings: human platelets, read-out: Platelet aggregation inhibiting activity (50% inhibition)
Text: (§1) Table 1 summarizes the results of in vitro tests in which the human platelet aggregation inyibitory activity of the 3-[4-(benzoylalkyl)piperazin-1-yl]sydnonimines of formula (2) and their relaxing activity on the extracted mesenteric artery of a rabbit were examined.
(§2) The mesenteric artery relaxing activity is shown by the […] (μM) of a drug required to induce 50% of the maximum relaxation, and the platelet aggregation inhibiting activity, by the concentration (μM) of a drug required to inhibit collagen-induced platelet aggregation to an extent of 50%.

[2] = solubility in water, dilute hydrochloric acid and Carmody's buffer by absorbance at 317 nm; type: physicochemical; settings: 25° C.
Experimental: The solubility of the N-ethoxycarbonyl-3-[4-(4-benzoylbutyl)piperazin-1-yl]sydnonimine obtained in Example 1 in water dilute hydrochloric acid and the Carmody's buffer was measured by the absorbance of the solution at 317 nm.

[3] = water solubility of the salts; type: physicochemical
[4] = test system: extracted mesenteric artery of a rabbit; experiment: mesenteric artery relaxing activity, in vitro (extracted artery); settings: Oryctolagus cuniculus, read-out: Mesenteric artery relaxing activity (50% of the maximum relaxation)
Text: as §1, §2

[5] = test system: extracted heart of a guinea pig; experiment: coronary blood flow, Langendorf's method, extracted heart; settings: 0.1 ml of 10^-4 g/ml solution injected
Experimental: The increase or decrease of the coronary blood flow was examined by the Langendorf's method using the extracted heart of a guinea pig. […] On the other hand, when 0.1 ml of morsydmine (10^-4 g/ml solution) was injected, no increase in the coronary blood flow was observed.

[6] = acute toxicity in male dd-strain mice; settings: mouse, in vivo
Experimental: The acute toxicity of the in vivo active type of this typical compound as a prodrug was tested by using male dd-strain mice (body weight 16 to 20 g).

[7] = test system: amygdaloid nucleus; experiment: local cerebral blood flow, amygdaloid nucleus (hydrogen gas clearance method); type: in vivo, rabbit; settings: 0.5 mg/kg i.v.; until 1 hour after administration; based on blood flow before administration
Experimental: (a) Activity on the hippocampus and amygdaloid nucleus (by the hydrogen gas clearance method) Rabbits having a body weight of about 3 kg, five per group, were used. A tracheal cannula was inserted into each rabbit under sodium pentobarbital anesthesia, and under artificial respiration, gallamine triethiodide was intravenously administered in a dose of 2 mg/kg to immobilize it. The animal was then fixed to a brain stereotaxic apparatus (Todai Noken type). Gallamine triethiodide was also intramuscularly administered in a dose of 3 mg/kg every one hour.
The local cerebral blood flow was measured by the hydrogen gas clearance method (UH meter, PHG-201, manufactured by Unique Medical Co., Ltd.). Platinum electrodes having a diameter of 300 μm and coated with an epoxy resin were inserted in the hippocampus (P:4, L:5, H:+5) and the amygdaloid nucleus (A:2, L:6, H:-6) in accordance with the brain atlas of Sawyer et al. An indifferent electrode was placed under the skin of the head and fixed there. […] The resulting curve was plotted semilogarithmically, and the half-time period (T 1/2) was determined by the initial slope method. The blood flow was calculated from the following equation.
The blood flow was measured every thirty minutes. […]

[8] = test system: cerebral cortex; experiment: blood flow in the cerebral cortex (cross thermocouple method); type: in vivo, rabbit; settings: 0.5 mg/kg via retroauricular vein
Experimental: Male rabbits having a body weight of about 3 kg, five per group, were used. Under sodium pentobarbital anesthesia, a tracheal cannula was inserted into each rabbits, and under artificial respiration, 2 mg of gallamine triethiodide was intravenously injected to immobilize the animals. The animals were each fixed to a brain stereotaxic apparatus (Todai Noken type). An element of the double needle type (WN-301, manufactured by Unique Medical Co.) was inserted into the frontal contex through a hole provided by a dental drill, and variations in potential were recorded. After the blood flow was stabilized, the test drug and a control drug were each administered through a cannula inserted into the retroauricular vein of the right ear. The percent increase in the blood flow was calculated by taking the blood flow at death as 0 and the blood flow before drug administration as 100%. When the compound A (0.5 mg/kg) was administered as the test drug, the blood flow increased by 10 to 20%. But when the control drug, morsydmine, (0.5 mg/kg) was administered, no increase in the blood flow was noted.

CC(C)CC(CCCN1CCN([n+]2cc([NH-])on2)CC1)C(=O)c1ccccc1 (stereo not shown) [R = iso-C4 H9, n = 3, 3-[4-(benzoyl-6-methylheptyl)piperazin-1-yl]sydnonimine dihydrochloride]
IC50 [1]: 11000 nM

CCOC(=O)[N-]c1c[n+](N2CCN(CCCCC(=O)c3ccccc3)CC2)no1 [Compound A, N-carboethoxy-3-[4-(4-benzoylbutyl)piperazin-1-yl]sydnonimine]
solubility ([2]; 0.001 n hydrochloric acid, 0.001 N (pH 3), read-out: Solubility in dilute hydrochloric acid): 2300 µg/mL (≈ 5.73 mM) | solubility ([2]; 0.01 n hydrochloric acid, 0.01 N (pH 2), read-out: Solubility in dilute hydrochloric acid): 6300 µg/mL (≈ 15.7 mM) | solubility ([2]; 0.1 n hydrochloric acid, 0.1 N (pH 1), read-out: Solubility in dilute hydrochloric acid): 10400 µg/mL (≈ 25.9 mM) | solubility ([2]; carmody's buffer, pH 2, read-out: Solubility in Carmody's buffer): 15600 µg/mL (≈ 38.9 mM) | solubility ([2]; carmody's buffer, pH 3, read-out: Solubility in Carmody's buffer): 9300 µg/mL (≈ 23.2 mM) | solubility ([2]; carmody's buffer, pH 4, read-out: Solubility in Carmody's buffer): 4400 µg/mL (≈ 11 mM) | solubility ([2]; carmody's buffer, pH 5, read-out: Solubility in Carmody's buffer): 1000 µg/mL (≈ 2.49 mM) | solubility ([2]; carmody's buffer, pH 6, read-out: Solubility in Carmody's buffer): 400 µg/mL (≈ 0.996 mM) | solubility ([2]; carmody's buffer, pH 7, read-out: Solubility in Carmody's buffer): 100 µg/mL (≈ 0.249 mM) | solubility ([2]; water, read-out: Solubility in water): 10 µg/mL (≈ 0.0249 mM)

CCOC(=O)[N-]c1c[n+](N2CCN(CCCCC(=O)c3ccccc3)CC2)no1 [Hydrochloride, N-ethoxycarbonyl-3-[4-(4-benzoylbutyl)-piperazin-1-yl]sydnonimine]
Solubility in water [3]: 0.89%

[NH-]c1c[n+](N2CCN(CCCCCCCCC(=O)c3ccccc3)CC2)no1 [R = H, n = 7, 3-[4-(8-benzoyloctyl)piperazin-1-yl]sydnonimine dihydrochloride]
EC50 [4]: 58 nM | IC50 [1]: 28 nM

[NH-]c1c[n+](N2CCN(CCCCC(=O)c3ccccc3)CC2)no1 [R = H, n = 3, 3-[4-(4-benzoylbutyl)piperazin-1-yl]sydnonimine dihydrochloride]
EC50 [4]: 200 nM | IC50 [1]: 3400 nM

CCOC(=O)[N-]c1c[n+](N2CCN(CCCCC(=O)c3ccccc3)CC2)no1 [Maleate, N-ethoxycarbonyl-3-[4-(4-benzoylbutyl)-piperazin-1-yl]sydnonimine]
Solubility in water [3]: 0.94%

CCOC(=O)[N-]c1c[n+](N2CCN(CCCCC(=O)c3ccccc3)CC2)no1 [Nitrate, N-ethoxycarbonyl-3-[4-(4-benzoylbutyl)-piperazin-1-yl]sydnonimine]
Solubility in water [3]: 0.43%

[NH-]c1c[n+](N2CCN(CCCC(=O)c3ccccc3)CC2)no1 [R = H, n = 2]
EC50 [4]: 2300 nM | IC50 [1]: 5400 nM

CCOC(=O)[N-]c1c[n+](N2CCN(CCCCC(=O)c3ccccc3)CC2)no1 [Oxalate, N-ethoxycarbonyl-3-[4-(4-benzoylbutyl)-piperazin-1-yl]sydnonimine]
Solubility in water [3]: 0.46%

[NH-]c1c[n+](N2CCN(CCCCCCC(=O)c3ccccc3)CC2)no1 [R = H, n = 5]
EC50 [4]: 120 nM | IC50 [1]: 940 nM

CCOC(=O)[N-]c1c[n+](N2CCN(CCCCC(=O)c3ccccc3)CC2)no1 [Compound A]
activation at 100 µg/mL ([5]; Cavia porcellus, read-out: increase in the coronary blood flow): 14% | LD50 ([6]; intravenous administration): 91 mg/kg | LD50 ([6]; oral administration): 750 mg/kg | LD50 ([6]; sc, subcutaneous administration): 350 mg/kg

[NH-]c1c[n+](N2CCN(CC(=O)c3ccccc3)CC2)no1 [R = H, n = 0, 3-[4-(benzoylmethyl)piperazin-1-yl]sydnonimine dihydrochloride]
EC50 [4]: 160 nM | IC50 [1]: 140 nM

[NH-]c1c[n+](N2CCN(CCCCCC(=O)c3ccccc3)CC2)no1 [R = H, n = 4]
EC50 [4]: 3000 nM | IC50 [1]: 6300 nM

CCOC(=O)[N-]c1c[n+](N2CCOCC2)no1 [morsydmine]
coronary blood flow, result in words [5]: no increase | increase of local cerebral blood flow at the amygdaloid nucleus [7]: about 15% | blood flow in the cerebral cortex, result in words [8]: no increase
